{"source": "patent US20220056019A1", "about": "“FARNESOID X RECEPTOR AGONISTS AND USES THEREOF” (Metacrine, Inc., priority 2018, published 2022)", "note": "pEC50: −log10 of the molar value."}
{"molecular_target": "T1, hFXR (Homo sapiens, UniProt Q96RI1)", "T1 construct": "expressed in transfected cells; host or cells: CV-1 cells", "T1 sequence (Q96RI1 1-486)": "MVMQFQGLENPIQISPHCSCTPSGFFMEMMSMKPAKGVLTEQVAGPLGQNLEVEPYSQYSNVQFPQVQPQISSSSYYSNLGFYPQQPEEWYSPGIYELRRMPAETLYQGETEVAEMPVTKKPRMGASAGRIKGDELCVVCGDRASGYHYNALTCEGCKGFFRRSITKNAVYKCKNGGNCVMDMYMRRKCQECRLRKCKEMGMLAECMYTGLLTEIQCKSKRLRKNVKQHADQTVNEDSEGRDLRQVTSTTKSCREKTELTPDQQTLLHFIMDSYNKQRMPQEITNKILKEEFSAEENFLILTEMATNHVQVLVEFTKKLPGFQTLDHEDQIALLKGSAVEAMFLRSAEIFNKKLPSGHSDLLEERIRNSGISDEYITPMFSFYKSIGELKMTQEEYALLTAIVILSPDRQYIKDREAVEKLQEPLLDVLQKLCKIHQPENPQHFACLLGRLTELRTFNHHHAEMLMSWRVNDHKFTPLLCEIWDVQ", "T1 sequence (P19793 1-462 partner)": "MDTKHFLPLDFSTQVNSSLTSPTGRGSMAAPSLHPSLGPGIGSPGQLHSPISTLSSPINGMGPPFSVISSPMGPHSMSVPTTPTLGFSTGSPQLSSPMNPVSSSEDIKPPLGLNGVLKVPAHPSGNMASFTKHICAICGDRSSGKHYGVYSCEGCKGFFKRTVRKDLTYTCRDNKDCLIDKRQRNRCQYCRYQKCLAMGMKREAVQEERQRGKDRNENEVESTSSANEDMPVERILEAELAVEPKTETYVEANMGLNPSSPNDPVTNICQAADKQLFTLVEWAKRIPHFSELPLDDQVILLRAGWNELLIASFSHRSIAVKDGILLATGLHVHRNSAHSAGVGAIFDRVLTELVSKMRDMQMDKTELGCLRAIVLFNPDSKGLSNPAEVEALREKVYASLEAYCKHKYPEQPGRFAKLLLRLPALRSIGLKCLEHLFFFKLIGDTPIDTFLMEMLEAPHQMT", "experiment": "In Vitro FXR Assay (TK): TK-ECRE-luc reporter in transfected CV-1 cells", "format": "cell-based", "conditions": "18 hrs incubation, luminescence", "how_it_was_run": "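CV-1 cells transiently cotransfected with hFXR, hRXR, TK-ECRE-luc reporter and pCMX-YFP plasmids in charcoal-stripped serum medium. Serially diluted compounds added for 18 h at 37° C., then cells lysed and luciferase luminescence measured.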"}
{"smiles": "COc1ccc([C@H]2CC[C@H](CN(c3cccc(-c4cnn(C(C)C)c4)c3)C(=O)[C@H]3CC[C@H](NC(=O)OC4COC4)CC3)CC2)cc1C", "note": "[Compound 6.05, Oxetan-3-yl (trans-4-((3-(1-isopropyl-1H-pyrazol-4-yl)phenyl)((trans-4-(4-methoxy-3-methylphenyl)cyclohexyl)meth-yl)carbamoyl)cyclohexyl)carbamate]", "pEC50": "≥ 7.30"}
{"smiles": "Cn1ccc2nc([C@H]3CC[C@H](CN(c4cccc(-c5cnc(C6CC6)s5)c4)C(=O)[C@H]4CC[C@H](OC(=O)N5CC(O)C5)CC4)CC3)ccc21", "note": "[Compound 5.13, trans-4-((3-(2-Cyclopropylthiazol-5-yl)phenyl)(((trans)-4-(1-methyl-1H-pyrrolo[3,2-b]pyridin-5-yl)cyclohexyl)methyl)carbamoyl) cyclohexyl 3-hydroxyazetidine-1-carboxylate]", "pEC50": "≥ 7.30"}
{"smiles": "COc1ccc(C23CCC(CN(c4cc(-c5cnn(C(C)C)c5)ccn4)C(=O)[C@H]4CC[C@H](NC(=O)C(C)(C)O)CC4)(CC2)CC3)cc1C", "note": "[Compound 9.03]", "pEC50": "≥ 7.30"}
{"smiles": "COc1ccc([C@H]2CC[C@H](CN(c3cccc(-c4cnn(C(C)C)c4)c3)C(=O)[C@H]3CC[C@H](NC(=O)OC(C)C)CC3)CC2)cc1C", "note": "[Compound 6.02, Isopropyl (trans-4-((3-(1-isopropyl-1H-pyrazol-4-yl)phenyl)((trans-4-(4-methoxy-3-methylphenyl)cyclohexyl)meth-yl)carbamoyl)cyclohexyl)carbamate]", "pEC50": "≥ 7.30"}
{"smiles": "COc1ccc([C@H]2CC[C@H](CN(c3cc(-c4cnc(C(C)C)s4)ccn3)C(=O)[C@H]3CC[C@H](OC(=O)NC4COC4)CC3)CC2)cc1C", "note": "[Compound 2.55, trans-4-((4-(2-Isopropylthiazol-5-yl)pyridin-2-yl)(((trans)-4-(4-methoxy-3-methylphenyl)cyclohexyl)methyl)carbamoyl)cyclohexyl oxetan-3-ylcarbamate]", "pEC50": "≥ 7.30"}
{"smiles": "COc1ccc([C@H]2CC[C@H](CN(c3cc(-c4cnn(C(C)C)c4)ccn3)C(=O)[C@H]3CC[C@H](OC(=O)N4CCNCC4)CC3)CC2)cc1C", "note": "[Compound 2.15, trans-4-((4-(1-Isopropyl-1H-pyrazol-4-yl)pyridin-2-yl) ((trans-4-(4-methoxy-3-methylphenyl)cyclohexyl)methyl)carbamoyl) cyclohexyl piperazine-1-carboxylate]", "pEC50": "6.00 to 7.30"}
{"smiles": "COc1ccc([C@H]2CC[C@H](CN(c3cc(-c4cnc(C5CC5)o4)ccn3)C(=O)[C@H]3CC[C@H](OC(=O)N4CC(O)C4)CC3)CC2)cc1C", "note": "[Compound 2.01, trans-4-((4-(2-Cyclopropyloxazol-5-yl)pyridin-2-yl)((trans-4-(4-methoxy-3-methylphenyl)cyclohexyl)methyl)carbamoyl)cyclohexyl 3-hydroxyazetidine-1-carboxylate]", "pEC50": "≥ 7.30"}
{"smiles": "COc1ccc([C@H]2CC[C@H](CN(c3cc(-c4cnn(C(C)C)c4)ccn3)C(=O)[C@H]3CC[C@H](OC(=O)NCC(C)F)CC3)CC2)cc1C", "note": "(stereo partly drawn) [Compound 2.28, trans-4-((4-(1-Isopropyl-1H-pyrazol-4-yl)pyridin-2-yl)(((trans)-4-(4-methoxy-3-methylphenyl)cyclohexyl)methyl)carbamoyl) cyclohexyl(2-fluoropropyl)carbamate]", "pEC50": "≥ 7.30"}
{"smiles": "COc1ccc([C@H]2CC[C@H](CN(c3cccc(-c4cnn(C(C)C)c4)c3)C(=O)[C@H]3CC[C@H](NC(=O)C4CCCCC4)CC3)CC2)cc1C", "note": "[Compound 10.01, trans-4-(Cyclohexanecarboxamido)-N-(3-(1-isopropyl-1H-pyrazol-4-yl)phenyl)-N-((trans-4-(4-methoxy-3-methylphenyl)cyclohexyl)methyl) cyclohexanecarboxamide]", "pEC50": "6.00 to 7.30"}
{"smiles": "COc1ccc(C23CCC(CN(c4cc(-c5cnc(C(C)C)s5)ccn4)C(=O)[C@H]4CC[C@H](OC(=O)NCCC(C)(C)O)CC4)(CC2)CC3)cc1C", "note": "[Compound 4.39, 4-((4-(2-Isopropylthiazol-5-yl)pyridin-2-yl)((4-(4-methoxy-3-methylphenyl)bicyclo[2.2.2]octan-1-yl)methyl)carbamoyl)(trans-cyclohexyl) (3-hydroxy-3-methylbutyl)carbamate]", "pEC50": "≥ 7.30"}
{"smiles": "COc1ccc(C23CCC(CN(c4cc(-n5cnc(C(C)C)c5)ccn4)C(=O)[C@H]4CC[C@H](OC(=O)N5CC(O)C5)CC4)(CC2)CC3)cc1C", "note": "[Compound 23.13, 4-((4-(4-Isopropyl-1H-imidazol-1-yl)pyridin-2-yl)((4-(4-methoxy-3-methylphenyl)bicyclo[2.2.2]octan-1-yl)methyl)carbamoyl)cyclohexyl trans-3-hydroxyazetidine-1-carboxylate]", "pEC50": "≥ 7.30"}
{"smiles": "COc1ccc([C@H]2CC[C@H](CN(c3cc(-c4coc(C(C)C)n4)ccn3)C(=O)[C@H]3CC[C@H](OC(=O)N4CC(O)C4)CC3)CC2)cc1C", "note": "[Compound 2.24, trans-4-((4-(2-Isopropyloxazol-4-yl)pyridin-2-yl)(((trans)-4-(4-methoxy-3-methylphenyl)cyclohexyl)methyl)carbamoyl) cyclohexyl 3-hydroxyazetidine-1-carboxylate]", "pEC50": "≥ 7.30"}
{"smiles": "COc1ccc([C@H]2CC[C@H](CN(c3cccc(-c4cnn(C(C)C)c4)c3)C(=O)[C@H]3CC[C@H](NC(=O)COCCCO)CC3)CC2)cc1C", "note": "[Compound 13, trans-4-(2-(3-Hydroxypropoxy)acetamido)-N-(3-(1-isopropyl-1H-pyrazol-4-yl)phenyl)-N-((trans-4-(4-methoxy-3-methylphenyl)cyclohexyl)methyl)cyclohexanecarboxamide]", "pEC50": "≥ 7.30"}
{"smiles": "COc1ccc(C23CCC(CN(c4cc(-c5cnn(C(C)C)c5)c(F)cn4)C(=O)[C@H]4CC[C@H](OC(=O)N5CC(CS(C)(=O)=O)C5)CC4)(CC2)CC3)cc1C", "note": "[Compound 25.07, 4-((5-Fluoro-4-(1-isopropyl-1H-pyrazol-4-yl)pyridin-2-yl)((4-(4-methoxy-3-methylphenyl)bicyclo[2.2.2]octan-1-yl)methyl)carbamoyl)cyclohexyl trans-3-((methylsulfonyl)methyl)azetidine-1-carboxylate]", "pEC50": "≥ 7.30"}
{"smiles": "COc1ccc(C23CCC(CN(c4cc(-c5cnc(C6CC6)s5)ccn4)C(=O)[C@H]4CC[C@H](NC(C)=O)CC4)(CC2)CC3)cc1C", "note": "[Compound 9.06, (trans)-4-Acetamido-N-(4-(2-cyclopropylthiazol-5-yl)pyridin-2-yl)-N-((4-(4-methoxy-3-methylphenyl)bicyclo[2.2.2]octan-1-yl)methyl)cyclohexanecarboxamide]", "pEC50": "≥ 7.30"}
{"smiles": "COc1ccc(C23CCC(CN(c4cc(-c5cnn(C(C)C)c5)ccn4)C(=O)[C@H]4CC[C@H](OC(=O)N5CC(O)C5)CC4)(CC2)CC3)cc1C", "note": "[Compound 4, 4-((4-(1-Isopropyl-1H-pyrazol-4-yl)pyridin-2-yl)((4-(4-methoxy-3-methylphenyl)bicyclo[2.2.2]octan-1-yl)methyl)carbamoyl)cyclohexyl 3-hydroxyazetidine-trans-1-carboxylate]", "pEC50": "≥ 7.30"}
{"smiles": "COc1ccc(C23CCC(CN(c4cc(-c5cnn(C6CCC6)c5)ccn4)C(=O)[C@H]4CC[C@H](OC(=O)N5CC(O)C5)CC4)(CC2)CC3)cc1C", "note": "[Compound 23.08, 4-((4-(1-Cyclobutyl-1H-pyrazol-4-yl)pyridin-2-yl)((4-(4-methoxy-3-methylphenyl)bicyclo[2.2.2]octan-1-yl)methyl)carbamoyl)(trans-cyclohexyl) 3-hydroxyazetidine-1-carboxylate]", "pEC50": "≥ 7.30"}
